# Experimental data reported in patent US20190343793A1, “COMPOSITIONS COMPRISING A CANNABINOID RECEPTOR BINDING LIGAND” (NOVALIQ GMBH, priority 2016, published 2019).
# Assay: Storage stability in a liquid vehicle comprising a semifluorinated alkane
compound,measurement,setting,value
"CCCCCc1cc(O)c2c(c1)OC(C)(C)[C@@H]1CCC(C)=C[C@@H]21 [delta-9-Tetrahydrocannabinol (THC), (−)-(6aR,10aR)-6,6,9-Trimethyl-3-pentyl-6a,7,8,10a-tetrahydro-6H-benzo[c]chromen-1-ol]",Storage period when dissolved or suspended in liquid vehicle comprising semifluorinated alkane,liquid vehicle comprising at least one semifluorinated alkane,up to 2 years
same,Stability when air was not excluded,"liquid vehicle with high content of, or essentially consisting of, F4H5 or F6H8",stable even when air was not excluded
